Measurements: patent publication EP2935231B1, “C-XYLOSIDE COMPOUNDS, COMPOSITIONS AND USE THEREOF TO DEPIGMENT THE SKIN” (L'OREAL, priority 2012, dated 2014)
Read-outs that look alike come from different tables or passages of the source. Each block holds one compound with its values, some of them ahead of it.

How the values were obtained:
[1] = system: coculture de kératinocytes et de mélanocytes
Text: (§1) Ce test est réalisé sur coculture de kératinocytes et de mélanocytes.
(§2) Pour le composé testé, il a été déterminé : • la cytotoxicité, en estimant l'incorporation de la leucine, • l'activité inhibitrice sur la synthèse de la mélanine, en estimant le rapport de l'incorporation de thiouracile à l'incorporation de leucine, rapporté à 100 % du témoin (le témoin correspond au test réalisé sans composé à testé). Les valeurs des IC50 (concentration pour laquelle 50 % de la synthèse de la mélanine est inhibée) ont été déterminées.

synthèse de la mélanine = test: Inhibition of melanin synthesis in keratinocyte/melanocyte coculture (ratio of thiouracil to leucine incorporation); format: cell-based; settings: concentration at which 50 % of melanin synthesis is inhibited; thiouracil/leucine incorporation relative to 100 % of control
Text: as §1, §2

[2] = system: coculture de kératinocytes et de mélanocytes; test: Cytotoxicity on keratinocyte/melanocyte coculture (leucine incorporation); settings: coculture of keratinocytes and melanocytes
Text: as §1, §2

[3] = system: modèle de peau reconstruite complet comprenant un derme vivant; test: Pigmentation in complete reconstructed skin model with living dermis, pigmentation induced by forskolin; format: cell-based
Text: L'activité du composé 1 a été évaluée sur le modèle de peau reconstruite complet décrit dans le brevet FR2928654 selon le procédé décrit dans le brevet FR2930644.
Le composé 1 a été ajouté au milieu de culture pendant une période de 16 jours à partir du 2eme jour de la phase d'émersion. La pigmentation a été induite par la Forskoline ajoutée pendant une période de 14 jours à partir du 4eme jour d'émersion (condition contrôle positif pigmenté).
Le composé 1 a montré une activité dépigmentante sur les paramètres suivants : • Luminance (clarté de la peau) plus la valeur de luminance est élevée plus l'échantillon de peau est clair : • augmentation significative de 6 points de la luminance pour le composé1 (Valeur de L contrôle positif = 63, valeur de L traitement par molécule 1 à 1 mM = 69) • Quantification de la mélanine par analyse d'images sur des coupes colorées au Fontana Masson (coloration argentique des grains de mélanine) : réduction de 60% de la quantité de mélanine par le composé 1 (contrôle positif = valeur arbitraire de 100%, composé 1 à 1 mM = 39,48%).

IC50 (synthèse de la mélanine): 145 µM
SMILES: Oc1ccc(CCC(O)CC2OC[C@@H](O)[C@H](O)[C@H]2O)c(O)c1 (stereo partly drawn) [Composé 11, (3R,4S,5R)-2-[2-hydroxy-4-(2,4-di-hydroxy-phenyl)butyl]tetrahydro-2H-pyran-3,4,5-triol]
Cytotoxicité sur co-culture [1]: Non cytotoxique

IC50 (synthèse de la mélanine): > 500 µM
SMILES: O=c1cc(CO)occ1O [Acide kojique]
Cytotoxicité sur co-culture [2]: 100 µM

IC50 (synthèse de la mélanine): > 500 µM
SMILES: OC[C@H]1O[C@@H](Oc2ccc(O)cc2)[C@H](O)[C@@H](O)[C@@H]1O [Arbutine]
Cytotoxicité sur co-culture [2]: Non cytotoxique

SMILES: COc1cc(CCC(O)CC2OC[C@@H](O)[C@H](O)[C@H]2O)ccc1O (stereo partly drawn) [Composé 1, (3R,4S,5R)-2-[2-hydroxy-4-(4-hydroxy-3-methoxyphenyl)butyl]tetrahydro-2H-pyran-3,4,5-triol]
valeur de L (luminance) ([3]; 1 mM, 16 days in culture medium, forskolin-induced pigmentation, higher = lighter skin): 69
augmentation de la luminance ([3]; 1 mM, 16 days in culture medium, versus forskolin positive control (L = 63)): 6 points
quantité de mélanine (contrôle positif = valeur arbitraire de 100%) ([3]; 1 mM, image analysis of Fontana Masson stained sections): 39,48%
réduction de la quantité de mélanine ([3]; 1 mM, image analysis of Fontana Masson stained sections, versus positive control): 60%
effet toxique ([3]; histology (morphology of reconstructed skin) and number of melanocytes (TRP1 labelling, DOPA reaction on epidermal sheet)): absence d'effet toxique
